Results as given in patent EP1628135A1, “Method for detecting medically relevant conditions in a solubilized LBC sample” (MTM Laboratories AG, priority 2004, dated 2006).
Read-outs that look alike come from different tables or passages of the source. Where a SMILES comes first, the peptide text is derived from it. [ ]: non-standard residue; d: D form. The star is where a group is joined. Sta = CC(C)C[C@H](N)[C@@H](O)CC(=O)O; Isovaleryl = CC(C)CC(=O)*

Legend:
[1] = system: p16^INK4a; assay: Stabilization of p16INK4a by proteinase inhibitors in mtm lysis medium
[2] = Stability of proteinase inhibitors in water
[3] = Solubility of proteinase inhibitors in water
[4] = inhibitor at the concentration listed in Table 2

Compound | p16^INK4a stabilization in mtm Lysis medium [1, 4] | stability in water [2] | Solubility in water [3] | p16^INK4a stabilization in mtm Lysis medium [1]
CC(C)CC(=O)N[C@H](C(=O)N[C@H](C(=O)N[C@@H](CC(C)C)[C@@H](O)CC(=O)N[C@@H](C)C(=O)N[C@@H](CC(C)C)[C@@H](O)CC(=O)O)C(C)C)C(C)C [Pepstatin A] (Isovaleryl-VV[Sta]A[Sta]-OH) | no |  |  | 
c1cnc2c(c1)ccc1cccnc12 [o-Phenanthroline] | no | poor | bad | 
O=S(=O)(F)Cc1ccccc1 [PMSF] | yes |  |  | 
O=C(O)CN(CCN(CC(=O)O)CC(=O)O)CC(=O)O [EDTA] |  |  |  | no
N=C(N)c1ccccc1 [Benzamidine] | no | good | good | 
CC(=O)N[C@@H](CC(C)C)C(=O)N[C@@H](CC(C)C)C(=O)N[C@H](C=O)CCCNC(=N)N [Leupeptin] | no | good | good | 
NCCc1ccc(S(=O)(=O)F)cc1 [Pefabloc= AEBSF, AEBSF] | yes |  |  | 
CC(C)C[C@H](NC(=O)[C@H]1O[C@@H]1C(=O)O)C(=O)NCCCCN=C(N)N [E-64] | no | good | good | 

The next lines start with results.

p16^INK4a stabilization in mtm Lysis medium [1, 4] | stability in water [2] | Solubility in water [3] | Compound | p16^INK4a stabilization in mtm Lysis medium [1]
no | poor | bad | CCOC(=O)[C@H]1O[C@@H]1C(=O)N[C@@H](CC(C)C)C(=O)NCCC(C)C [EST] | 
no | good | poor | CC(C)C[C@H](NC(=O)N[C@H](C(=O)N[C@@H](CCC(N)=O)C(=O)N[C@@H](C)C=O)[C@@H]1CCNC(=N)N1)C(=O)O [Elastatinal] | 
no | good | good | CC(C)C[C@H](NC(=O)[C@@H](O)[C@H](N)Cc1ccccc1)C(=O)O [Bestatin] | 
no | poor | poor | CCOC(=O)[C@@H]1O[C@H]1C(=O)NC(CC(C)C)C(=O)N1CCN(Cc2ccc(OC)c(OC)c2OC)CC1.CCOC(=O)[C@@H]1O[C@H]1C(=O)NC(CC(C)C)C(=O)N1CCN(Cc2ccc(OC)c(OC)c2OC)CC1.O=S(=O)(O)O (stereo partly shown) [NCO-700] | 
no | good | good | CCCC[C@@H](C=O)NC(=O)[C@H](CC(C)C)NC(=O)OCc1ccccc1 [Calpeptin] | 
